According to paper PMC7497086, “Fluorophore‐Labeled Cyclic Nucleotides as Potent Agonists of Cyclic Nucleotide‐Regulated Ion Channels” (Chembiochem, 2020):

Legend:
Assay type in all cases: biochemical
[1] = molecular target: T1, Heterotetrameric CNGA2:A4:B1b channels (Rattus norvegicus, UniProt A0A8I5ZN27+Q00195+Q64359); assay: Patch-clamp activation of heterotetrameric olfactory CNGA2:A4:B1b channels, inside-out patches of Xenopus oocytes; conditions: inside-out patches, +10 mV
T1 construct: expressed in transfected cells; host or cells: Xenopus laevis oocytes injected with cRNA (CNGA2:CNGA4:CNGB1b at 2:1:1)
Description: First, the effect of the compounds on olfactory CNG channels with natural composition was tested. […] To determine the potency of the ligands, full concentration‐activation relationships were generated. These relationships were fitted with Equation 1 (Experimental Section), yielding the concentration of half maximum activation (EC 50) and the Hill coefficient (H a).
(§1) Molecular biology and heterologous expression of CNG and HCN channels: The subunits CNGA2 (accession No. AF126808), CNGA4 (accession no. U12623) and CNGB1b (accession no. AF068572) of rat olfactory channels as well as mouse HCN2 channels (NM008226) were subcloned in front of the T7 promoter of pGEMHEnew. The corresponding cRNAs were produced with the mMESSAGE mMACHINE T7 Kit (Ambion, Austin, TX, USA).
(§2) Oocytes at stages IV and V were injected with 50–130 ng cRNA encoding either CNGA2, CNGA2 : CNGA4 : CNGB1b (2 : 1 : 1 ratio) or HCN2 channels either manually or mediated by an injection robot (RoboInject®). The injected oocytes were incubated at 18 °C for up to 6 days in Barth's medium containing (in mM) 84 NaCl, 1 KCl, 2.4 NaHCO3, 0.82 MgSO4, 0.41 CaCl2, 0.33 Ca(NO3)2, 7.5 TRIS, cefuroxime (4.0 μg/mL) and penicillin/streptomycin (100 μg/mL), pH 7.4.
(§3) Electrophysiology: Macroscopic currents were recorded in inside‐out patches of the oocytes expressing hundreds to several thousand of the desired channels by using the patch‐clamp technique. The patch pipettes were pulled from quartz tubing (P‐2000, Sutter Instrument, Novato, USA) with an outer and inner diameter of 1.0 and 0.7 mm (VITROCOM, New Jersey, USA). The corresponding pipette resistance was 0.9–2.3 MΩ. The bath and pipette solution contained (in mM): 150 KCl, 1 EGTA, 20 HEPES (pH 7.4) for CNG channel measurements. For HCN channel measurements the bath solution contained (in mM): 100 KCl, 10 EGTA, 10 HEPES (pH 7.2) and the pipette (in mM) 120 KCl, 10 HEPES, 1 CaCl2 (pH 7.2). All experiments were performed at room temperature by using an Axopatch 200B amplifier (Axon Instruments, Foster City, CA, USA). Electrophysiology was controlled by the Patchmaster‐software (HEKA Elektronik Dr. Schulze GmbH, Lambrecht, Germany). The sampling rate was 5 kHz and the filter implemented in the amplifier (4‐pole Bessel) was set to 2 kHz. Measurements in HCN2 channels were started 3.5 minutes after patch excision, to minimize run down phenomena.18 The solutions with the different ligand concentrations to be studied were applied by a multi‐barrel device to the patches with a flow rate of 0.8 to 1.2 mL/min. The concentration of the fluorescent ligands was verified by UV/Vis spectroscopy.
(§4) where I is the actual current amplitude and I max the maximum current amplitude at saturating concentration of each cyclic nucleotide. EC 50 is the ligand concentration generating half maximum current and H a the respective Hill coefficient.

[2] = molecular target: T2, heterotetrameric olfactory CNG channels (Rattus norvegicus, UniProt A0A8I5ZN27+Q00195+Q64359); assay: Confocal patch-clamp fluorometry (cPCF): ligand binding and activation, heterotetrameric CNG channels; conditions: Figure 4A
T2 construct: expressed in transfected cells; host or cells: Xenopus laevis oocytes injected with cRNA (CNGA2:CNGA4:CNGB1b at 2:1:1)
Description: (§5) As expected from the above data, the binding profile of 10 was similar for the two different types of ion channels, yielding similar BC 50 and H b values.
(§6) Confocal patch‐clamp fluorometry: Ionic current and binding of the fluorescent ligand in macropatches were simultaneously measured by cPCF as described before.2a, 2b The patch pipettes were pulled from borosilicate glass tubing with an outer and inner diameter of 2.0 and 1.0 mm (Hilgenberg GmbH, Malsfeld, Germany). After fire polishing, the corresponding pipette resistance was 0.7–1.2 MΩ. The bath and pipette solution contained (in mM): 150 KCl, 1 EGTA, 5 HEPES (pH 7.4) for CNG channel measurements. To distinguish the fluorescence of the unbound fluorescent ligand from that of the bound fluorescent ligands, the fluorescent dye DY647 was added to the bath solution at a concentration of 5 μM. The fluorescent ligand and DY647 were excited at 543 and 633 nm, respectively, with a HeNe laser system and an AchroGate beam splitter. Fluorescence intensity from the bath and pipette solution were normalized on each other and the surplus of the green fluorescence of the patch dome with respect to the red fluorescence was used to quantify the bound ligands. The actual relative fluorescence (F) was normalized in each patch with respect to the maximum relative fluorescence (F max) at a saturating concentration of the fluorescent ligand. […]

[3] = molecular target: T3, Homotetrameric CNGA2 channels (Rattus norvegicus, UniProt Q00195); assay: Patch-clamp activation of homotetrameric CNGA2 channels, inside-out patches of Xenopus oocytes
T3 construct: expressed in transfected cells; host or cells: Xenopus laevis oocytes injected with CNGA2 cRNA
T3 sequence (Q00195 1-664): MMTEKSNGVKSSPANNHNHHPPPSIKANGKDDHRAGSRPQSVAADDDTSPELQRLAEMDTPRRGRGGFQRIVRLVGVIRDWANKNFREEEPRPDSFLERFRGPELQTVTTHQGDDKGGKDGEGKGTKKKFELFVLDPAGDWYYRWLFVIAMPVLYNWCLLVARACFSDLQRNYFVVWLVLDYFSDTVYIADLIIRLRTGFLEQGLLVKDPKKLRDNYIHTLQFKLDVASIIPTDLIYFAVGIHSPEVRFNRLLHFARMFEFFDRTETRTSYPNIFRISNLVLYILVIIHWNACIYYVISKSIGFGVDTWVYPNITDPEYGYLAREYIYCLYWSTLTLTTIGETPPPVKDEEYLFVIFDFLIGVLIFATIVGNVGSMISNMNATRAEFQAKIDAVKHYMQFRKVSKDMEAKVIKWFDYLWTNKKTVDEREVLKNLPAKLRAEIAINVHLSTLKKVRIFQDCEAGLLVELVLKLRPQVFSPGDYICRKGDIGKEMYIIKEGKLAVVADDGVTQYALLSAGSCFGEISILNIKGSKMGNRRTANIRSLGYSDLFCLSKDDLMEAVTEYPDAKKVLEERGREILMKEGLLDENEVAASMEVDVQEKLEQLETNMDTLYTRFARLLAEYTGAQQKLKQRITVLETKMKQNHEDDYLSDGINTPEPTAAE
Description: Moreover, we studied the effect of the nucleotide derivatives on homotetrameric CNGA2 channels.
as §1, §2, §3, §4

[4] = molecular target: T4, homotetrameric olfactory CNG channels (Rattus norvegicus, UniProt Q00195); assay: Confocal patch-clamp fluorometry (cPCF): ligand binding and activation, homotetrameric CNG channels; conditions: Figure 4B
T4 construct: expressed in transfected cells; host or cells: Xenopus laevis oocytes injected with CNGA2 cRNA
T4 sequence (Q00195 1-664): T3 sequence (Q00195 1-664)
Description: as §5, §6

[5] = unit only in the axis title [10] (μM)

T2 sequence (Q64359 whole entry, one chain of several): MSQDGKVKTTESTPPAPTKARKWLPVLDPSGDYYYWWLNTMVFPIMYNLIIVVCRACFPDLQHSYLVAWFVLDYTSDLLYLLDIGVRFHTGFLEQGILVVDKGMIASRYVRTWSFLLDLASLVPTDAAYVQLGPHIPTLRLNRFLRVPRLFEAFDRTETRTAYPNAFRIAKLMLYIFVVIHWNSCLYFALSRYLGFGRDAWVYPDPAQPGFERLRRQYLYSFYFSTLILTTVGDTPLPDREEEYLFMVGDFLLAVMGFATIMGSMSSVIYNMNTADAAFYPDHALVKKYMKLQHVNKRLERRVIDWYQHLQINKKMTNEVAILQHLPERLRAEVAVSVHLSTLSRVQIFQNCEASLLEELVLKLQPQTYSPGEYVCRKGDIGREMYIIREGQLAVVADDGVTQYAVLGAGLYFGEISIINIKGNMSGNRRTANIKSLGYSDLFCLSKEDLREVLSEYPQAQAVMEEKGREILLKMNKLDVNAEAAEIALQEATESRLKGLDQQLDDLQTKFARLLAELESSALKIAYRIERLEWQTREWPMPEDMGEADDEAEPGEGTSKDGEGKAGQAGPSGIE
T2 sequence (A0A8I5ZN27 1-858 isoform A0A8I5ZN27-2, one chain of several): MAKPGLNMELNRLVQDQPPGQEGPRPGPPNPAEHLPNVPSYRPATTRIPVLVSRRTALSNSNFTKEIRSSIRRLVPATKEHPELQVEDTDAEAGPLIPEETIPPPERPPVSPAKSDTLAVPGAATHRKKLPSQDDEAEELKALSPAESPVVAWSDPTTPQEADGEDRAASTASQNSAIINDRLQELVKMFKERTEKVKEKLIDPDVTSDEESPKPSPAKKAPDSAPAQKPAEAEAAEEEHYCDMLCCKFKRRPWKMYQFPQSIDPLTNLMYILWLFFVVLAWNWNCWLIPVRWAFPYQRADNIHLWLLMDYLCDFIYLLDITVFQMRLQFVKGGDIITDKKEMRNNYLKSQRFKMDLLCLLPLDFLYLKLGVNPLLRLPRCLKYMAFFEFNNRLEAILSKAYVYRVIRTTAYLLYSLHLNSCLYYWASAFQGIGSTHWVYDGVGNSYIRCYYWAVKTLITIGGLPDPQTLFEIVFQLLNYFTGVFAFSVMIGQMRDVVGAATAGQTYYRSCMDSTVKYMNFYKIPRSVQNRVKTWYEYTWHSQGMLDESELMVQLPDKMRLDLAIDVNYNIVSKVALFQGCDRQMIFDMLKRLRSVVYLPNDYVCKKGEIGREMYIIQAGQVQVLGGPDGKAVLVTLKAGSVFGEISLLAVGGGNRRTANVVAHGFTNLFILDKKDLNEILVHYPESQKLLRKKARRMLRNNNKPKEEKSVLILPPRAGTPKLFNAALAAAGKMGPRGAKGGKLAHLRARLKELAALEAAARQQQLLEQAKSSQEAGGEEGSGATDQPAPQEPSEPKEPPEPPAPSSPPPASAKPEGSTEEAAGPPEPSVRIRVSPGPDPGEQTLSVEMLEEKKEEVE
T1 sequence (Q64359 whole entry, one chain of several): as the sequence (Q64359 whole entry, one chain of several) above
T1 sequence (A0A8I5ZN27 1-858 isoform A0A8I5ZN27-2, one chain of several): as the sequence (A0A8I5ZN27 1-858 isoform A0A8I5ZN27-2, one chain of several) above

With `CC1(C)C2=C3C=C4C5=[N+](CCC4OC3CCN2c2ccc(CC(=O)NCCCCCc3ccc(Sc4nc6c(=O)[nH]c(N)nc6n4[C@@H]4O[C@@H]6COP(=O)(O)O[C@H]6[C@H]4O)cc3)cc21)c1ccc(S(=O)(=O)[O-])cc1C5(C)C` (stereo partly drawn) [Compound 10] the “H a (Hill coefficient of activation)” value [1] was 2.32±0.16, the EC50 ([1]; concentration of half maximum activation) was 0.63 ± 0.02 µM and the “Hb (Hill coefficient of binding, cPCF)” value [2] was 1.55. For the same compound, the EC50 [2, 5] was 1.03 ± 0.04 µM, the “EC 50 (in words)” value [3] was “nanomolar range” and the “H a (Hill coefficient of activation)” value ([3]; inside-out patches) was 4.03±0.12. For the same compound, the EC50 ([3]; inside-out patches, concentration of half maximum activation) was 0.65 ± 0.01 µM, the “Hb (Hill coefficient of binding, cPCF)” value [4] was 1.43 and the EC50 [4, 5] was 1.17 ± 0.07 µM.
